Experiments:
[1] = test system: rice flat sedge; assay: Test Example 3: herbicidal effect by foliage application, Wagner pot (Table 18, symbol E); type: in vivo, rice flat sedge (Cyperus iria); details: 320 g/ha
In short: (§1)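 Plants were sown in alluvial soil held under 0.1–0.5 cm standing water and grown 14 days in a greenhouse at 25–30 °C. An emulsifiable formulation, water-diluted to the set dose, was then sprayed onto the foliage, and effects were scored three weeks later using previously defined criteria.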

[2] = test system: Italian ryegrass; assay: Test Example 5: herbicidal effect by foliage application, plastic box (Table 20, symbol K); type: in vivo, Italian ryegrass (Lolium multiflorum); details: foliage application after 14-day growth, evaluated three weeks after application
In short: (§2)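 Plants were sown into sterilized diluvial soil under about 1.5 cm cover and kept in a greenhouse at 25° C. to 30° C. Fourteen days on, foliage received an even spray of the diluted emulsion. Herbicidal or crop effect was judged three weeks afterwards.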

[3] = test system: wild oat; assay: Test Example 5: herbicidal effect by foliage application, plastic box (Table 20, symbol I); type: in vivo, wild oat (Avena fatua); details: foliage application after 14-day growth, evaluated three weeks after application
In short: as §2

[4] = test system: Chinese sprangletop; assay: Test Example 3: herbicidal effect by foliage application, Wagner pot (Table 18, symbol D); type: in vivo, chinese sprangletop (Leptochloa chinensis); details: 320 g/ha
In short: as §1

[5] = test system: velvetleaf; assay: Test Example 4: herbicidal effect by soil treatment (Table 19, symbol M); type: in vivo, velvetleaf (Abutilon theophrasti); details: amount of applied herbicide 320 g/ha
In short: (§3)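 Pre-emergence style soil spray: seeds under ~1.5 cm sterilized diluvial soil received a uniform coat of emulsion diluted to the predetermined herbicide amount. Greenhouse 25–30° C; readout at week three on previously defined criteria.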

[6] = test system: lambsquarters; assay: Test Example 5: herbicidal effect by foliage application, plastic box (Table 20, symbol O); type: in vivo, lambsquarters (Chenopodium album); details: foliage application after 14-day growth, evaluated three weeks after application
In short: as §2

[7] = test system: southern crabgrass; assay: Test Example 4: herbicidal effect by soil treatment (Table 19, symbol F); type: in vivo, southern crabgrass (Digitaria ciliaris); details: amount of applied herbicide 320 g/ha
In short: as §3

[8] = test system: windgrass; assay: Test Example 5: herbicidal effect by foliage application, plastic box (Table 20, symbol L); type: in vivo, windgrass (Apera spica-venti); details: foliage application after 14-day growth, evaluated three weeks after application
In short: as §2

[9] = test system: redroot pigweed; assay: Test Example 5: herbicidal effect by foliage application, plastic box (Table 20, symbol N); type: in vivo, redroot pigweed (Amaranthus retroflexus); details: foliage application after 14-day growth, evaluated three weeks after application
In short: as §2

[10] = test system: redroot pigweed; assay: Test Example 4: herbicidal effect by soil treatment (Table 19, symbol N); type: in vivo, redroot pigweed (Amaranthus retroflexus); details: amount of applied herbicide 320 g/ha
In short: as §3

[11] = test system: blackgrass; assay: Test Example 5: herbicidal effect by foliage application, plastic box (Table 20, symbol J); type: in vivo, blackgrass (Alopecurus myosuroides); details: foliage application after 14-day growth, evaluated three weeks after application
In short: as §2

[12] = test system: lambsquarters; assay: Test Example 4: herbicidal effect by soil treatment (Table 19, symbol O); type: in vivo, lambsquarters (Chenopodium album); details: amount of applied herbicide 320 g/ha
In short: as §3

[13] = test system: chickweed; assay: Test Example 5: herbicidal effect by foliage application, plastic box (Table 20, symbol P); type: in vivo, common chickweed (Stellaria media); details: foliage application after 14-day growth, evaluated three weeks after application
In short: as §2

[14] = test system: southern crabgrass; assay: Test Example 5: herbicidal effect by foliage application, plastic box (Table 20, symbol F); type: in vivo, southern crabgrass (Digitaria ciliaris); details: foliage application after 14-day growth, evaluated three weeks after application
In short: as §2

[15] = test system: green foxtail; assay: Test Example 4: herbicidal effect by soil treatment (Table 19, symbol G); type: in vivo, green foxtail (Setaria viridis); details: amount of applied herbicide 320 g/ha
In short: as §3

[16] = test system: barnyard grass; assay: Test Example 4: herbicidal effect by soil treatment (Table 19, symbol H); type: in vivo, barnyard grass (Echinochloa crus-galli); details: amount of applied herbicide 320 g/ha
In short: as §3

[17] = test system: persian speedwell; assay: Test Example 4: herbicidal effect by soil treatment (Table 19, symbol R); type: in vivo, Persian speedwell (Veronica persica); details: amount of applied herbicide 320 g/ha
In short: as §3

[18] = test system: windgrass; assay: Test Example 4: herbicidal effect by soil treatment (Table 19, symbol L); type: in vivo, windgrass (Apera spica-venti); details: amount of applied herbicide 320 g/ha
In short: as §3

[19] = test system: velvetleaf; assay: Test Example 5: herbicidal effect by foliage application, plastic box (Table 20, symbol M); type: in vivo, velvetleaf (Abutilon theophrasti); details: foliage application after 14-day growth, evaluated three weeks after application
In short: as §2

[20] = test system: persian speedwell; assay: Test Example 5: herbicidal effect by foliage application, plastic box (Table 20, symbol R); type: in vivo, Persian speedwell (Veronica persica); details: foliage application after 14-day growth, evaluated three weeks after application
In short: as §2

[21] = test system: barnyard grass; assay: Test Example 5: herbicidal effect by foliage application, plastic box (Table 20, symbol H); type: in vivo, barnyard grass (Echinochloa crus-galli); details: foliage application after 14-day growth, evaluated three weeks after application
In short: as §2

[22] = test system: Italian ryegrass; assay: Test Example 4: herbicidal effect by soil treatment (Table 19, symbol K); type: in vivo, Italian ryegrass (Lolium multiflorum); details: amount of applied herbicide 320 g/ha
In short: as §3

[23] = test system: green foxtail; assay: Test Example 5: herbicidal effect by foliage application, plastic box (Table 20, symbol G); type: in vivo, green foxtail (Setaria viridis); details: foliage application after 14-day growth, evaluated three weeks after application
In short: as §2

[24] = test system: wild oat; assay: Test Example 4: herbicidal effect by soil treatment (Table 19, symbol I); type: in vivo, wild oat (Avena fatua); details: amount of applied herbicide 320 g/ha
In short: as §3

[25] = test system: barnyard grass; assay: Test Example 3: herbicidal effect by foliage application, Wagner pot (Table 18, symbol H); type: in vivo, barnyard grass (Echinochloa crus-galli); details: 320 g/ha
In short: as §1

[26] = test system: blackgrass; assay: Test Example 4: herbicidal effect by soil treatment (Table 19, symbol J); type: in vivo, blackgrass (Alopecurus myosuroides); details: amount of applied herbicide 320 g/ha
In short: as §3

[27] = test system: chickweed; assay: Test Example 4: herbicidal effect by soil treatment (Table 19, symbol P); type: in vivo, common chickweed (Stellaria media); details: amount of applied herbicide 320 g/ha
In short: as §3

[28] = amount of applied herbicide 320 g/ha

CCCC(=O)Oc1c(C)nn(C)c(=O)c1-c1c(-c2ccc(F)cc2)sc2c(F)cccc12 [4-002]
herbicidal effect on rice flat sedge (E) [1]: 5 (Herbicidal rate of 90% or more (almost completely withered)) | herbicidal effect on K: Italian ryegrass (evaluation grade 0-5) ([2]; 320 g/ha): 3 (Herbicidal rate of 40% or more and less than 70%) | herbicidal effect on I: wild oat (evaluation grade 0-5) ([3]; 320 g/ha): 0 (Herbicidal rate of 5% or less (almost no effect)) | herbicidal effect on Chinese sprangletop (D) [4]: 2 (Herbicidal rate of 20% or more and less than 40%) | Herbicidal effect by soil treatment, M: velvetleaf [5]: 2 (Herbicidal rate of 20% or more and less than 40%) | herbicidal effect on O: lambsquarters (evaluation grade 0-5) ([6]; 320 g/ha): 3 (Herbicidal rate of 40% or more and less than 70%) | Herbicidal effect by soil treatment, F: southern crabgrass [7]: 0 (Herbicidal rate of 5% or less (almost no effect)) | herbicidal effect on L: windgrass (evaluation grade 0-5) ([8]; 320 g/ha): 0 (Herbicidal rate of 5% or less (almost no effect)) | herbicidal effect on N: redroot pigweed (evaluation grade 0-5) ([9]; 320 g/ha): 5 (Herbicidal rate of 90% or more (almost completely withered)) | Herbicidal effect by soil treatment, N: redroot pigweed [10]: 3 (Herbicidal rate of 40% or more and less than 70%) | herbicidal effect on J: blackgrass (evaluation grade 0-5) ([11]; 320 g/ha): 1 (Herbicidal rate of 5% or more and less than 20%) | Herbicidal effect by soil treatment, O: lambsquarters [12]: 3 (Herbicidal rate of 40% or more and less than 70%) | herbicidal effect on P: chickweed (evaluation grade 0-5) ([13]; 320 g/ha): 5 (Herbicidal rate of 90% or more (almost completely withered)) | herbicidal effect on F: southern crabgrass (evaluation grade 0-5) ([14]; 320 g/ha): 0 (Herbicidal rate of 5% or less (almost no effect)) | Herbicidal effect by soil treatment, G: green foxtail [15]: 2 (Herbicidal rate of 20% or more and less than 40%) | Herbicidal effect by soil treatment, H: barnyard grass [16]: 4 (Herbicidal rate of 70% or more and less than 90%) | Herbicidal effect by soil treatment, R: persian speedwell [17]: 0 (Herbicidal rate of 5% or less (almost no effect)) | Herbicidal effect by soil treatment, L: windgrass [18]: 0 (Herbicidal rate of 5% or less (almost no effect)) | herbicidal effect on M: velvetleaf (evaluation grade 0-5) ([19]; 320 g/ha): 5 (Herbicidal rate of 90% or more (almost completely withered)) | herbicidal effect on R: persian speedwell (evaluation grade 0-5) ([20]; 320 g/ha): 4 (Herbicidal rate of 70% or more and less than 90%) | herbicidal effect on H: barnyard grass (evaluation grade 0-5) ([21]; 320 g/ha): 4 (Herbicidal rate of 70% or more and less than 90%) | Herbicidal effect by soil treatment, K: Italian ryegrass [22]: 0 (Herbicidal rate of 5% or less (almost no effect)) | herbicidal effect on G: green foxtail (evaluation grade 0-5) ([23]; 320 g/ha): 4 (Herbicidal rate of 70% or more and less than 90%) | Herbicidal effect by soil treatment, I: wild oat [24]: 0 (Herbicidal rate of 5% or less (almost no effect)) | herbicidal effect on barnyard grass (H) [25]: 5 (Herbicidal rate of 90% or more (almost completely withered)) | Herbicidal effect by soil treatment, J: blackgrass [26]: 0 (Herbicidal rate of 5% or less (almost no effect)) | Herbicidal effect by soil treatment, P: chickweed [27]: 0 (Herbicidal rate of 5% or less (almost no effect))

Cc1nn(C)c(=O)c(-c2c(-c3ccc4c(c3)OCO4)sc3cc(F)c(F)cc23)c1O [5-035]
herbicidal effect on rice flat sedge (E) [1]: 3 (Herbicidal rate of 40% or more and less than 70%) | Herbicidal effect by foliage application, K: Italian ryegrass [2, 28]: 0 (Herbicidal rate of 5% or less (almost no effect)) | Herbicidal effect by foliage application, I: wild oat [3, 28]: 0 (Herbicidal rate of 5% or less (almost no effect)) | herbicidal effect on Chinese sprangletop (D) [4]: 3 (Herbicidal rate of 40% or more and less than 70%) | M: velvetleaf, herbicidal effect grade [5]: 0 (Herbicidal rate of 5% or less (almost no effect)) | Herbicidal effect by foliage application, O: lambsquarters [6, 28]: 5 (Herbicidal rate of 90% or more (almost completely withered)) | F: southern crabgrass, herbicidal effect grade [7]: 1 (Herbicidal rate of 5% or more and less than 20%) | Herbicidal effect by foliage application, L: windgrass [8, 28]: 5 (Herbicidal rate of 90% or more (almost completely withered)) | Herbicidal effect by foliage application, N: redroot pigweed [9, 28]: 5 (Herbicidal rate of 90% or more (almost completely withered)) | N: redroot pigweed, herbicidal effect grade [10]: 1 (Herbicidal rate of 5% or more and less than 20%) | Herbicidal effect by foliage application, J: blackgrass [11, 28]: 0 (Herbicidal rate of 5% or less (almost no effect)) | O: lambsquarters, herbicidal effect grade [12]: 3 (Herbicidal rate of 40% or more and less than 70%) | Herbicidal effect by foliage application, P: chickweed [13, 28]: 5 (Herbicidal rate of 90% or more (almost completely withered)) | Herbicidal effect by foliage application, F: southern crabgrass [14, 28]: 1 (Herbicidal rate of 5% or more and less than 20%) | G: green foxtail, herbicidal effect grade [15]: 2 (Herbicidal rate of 20% or more and less than 40%) | H: barnyard grass, herbicidal effect grade [16]: 3 (Herbicidal rate of 40% or more and less than 70%) | R: persian speedwell, herbicidal effect grade [17]: 5 (Herbicidal rate of 90% or more (almost completely withered)) | L: windgrass, herbicidal effect grade [18]: 0 (Herbicidal rate of 5% or less (almost no effect)) | Herbicidal effect by foliage application, M: velvetleaf [19, 28]: 5 (Herbicidal rate of 90% or more (almost completely withered)) | Herbicidal effect by foliage application, R: persian speedwell [20, 28]: 5 (Herbicidal rate of 90% or more (almost completely withered)) | Herbicidal effect by foliage application, H: barnyard grass [21, 28]: 2 (Herbicidal rate of 20% or more and less than 40%) | K: Italian ryegrass, herbicidal effect grade [22]: 0 (Herbicidal rate of 5% or less (almost no effect)) | Herbicidal effect by foliage application, G: green foxtail [23, 28]: 0 (Herbicidal rate of 5% or less (almost no effect)) | I: wild oat, herbicidal effect grade [24]: 0 (Herbicidal rate of 5% or less (almost no effect)) | herbicidal effect on barnyard grass (H) [25]: 4 (Herbicidal rate of 70% or more and less than 90%) | J: blackgrass, herbicidal effect grade [26]: 0 (Herbicidal rate of 5% or less (almost no effect)) | P: chickweed, herbicidal effect grade [27]: 1 (Herbicidal rate of 5% or more and less than 20%)
